Experimental data: patent publication EP0209275B1, “Benz-trisubstituted 2-aminotetralins” (SMITHKLINE BECKMAN CORPORATION, priority 1985, dated 1987)
Read-outs that look alike come from different tables or passages of the source.

Key:
[1] = biological target: T1, D1 receptors (Rattus norvegicus, UniProt P18901); assay: D1 activity - competition for 3H-fenoldopam binding in rat striatum (caudate) membranes
T1 construct: homogenized and washed membrane preparations from rat caudate nuclei; from tissue; host or cells: rat caudate nuclei (striatum) membranes
T1 sequence (P18901 whole entry): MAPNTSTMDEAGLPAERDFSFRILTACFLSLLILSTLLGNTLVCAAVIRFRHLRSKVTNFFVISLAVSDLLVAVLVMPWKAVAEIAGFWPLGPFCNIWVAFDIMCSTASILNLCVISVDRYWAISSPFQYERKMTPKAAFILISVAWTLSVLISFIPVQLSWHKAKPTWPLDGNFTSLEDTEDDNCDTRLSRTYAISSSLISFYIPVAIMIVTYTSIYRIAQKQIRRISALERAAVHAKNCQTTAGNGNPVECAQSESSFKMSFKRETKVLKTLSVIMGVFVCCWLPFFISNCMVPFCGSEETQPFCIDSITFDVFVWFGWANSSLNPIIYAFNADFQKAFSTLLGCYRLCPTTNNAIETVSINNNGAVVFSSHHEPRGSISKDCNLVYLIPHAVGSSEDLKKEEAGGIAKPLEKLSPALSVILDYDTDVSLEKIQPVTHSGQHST
Protocol: B) D1 Activity - Competition for ^3H-Fenoldopam in Rat Striatum Tissue. Test Procedure
The assay was performed using homogenized and washed membrane preparations from rat caudate nuclei. Tissues were preincubated for 15 min at 37° in 50 mM Tris-HCI, pH 7.4, 10 mM magnesium sulfate, 2 mM ethylenediamine tetra-acetic acid and 0.1 % ascorbate. The binding assay was then carried out in the above buffer also containing 10 µm pargyline, ^3H-fenoldopam and test compounds. The membrane- bound radioactivity was trapped by rapid filtration over glass fiber (GF/C) filters. In each experiment the amount of ^3H-fenoldopam bound was determined in the absence (total) and presence (non-specific) of 10^-6M (+)-butaclamol, the difference yielding specific ^3H-fenoldopam binding. The ability of each compound to compete with ^3H-fenoldopam (approximately 2.0 nM) was tested at concentrations of 10-^7 and 10^-6M.

[2] = biological target: T2, D2 receptors (Bos taurus, UniProt P20288); assay: D2 activity - competition for 3H-spiroperidol binding in bovine anterior pituitary membranes; settings: for Kb: competition with 3H-spiroperidol (approximately .25 nM), bovine anterior pituitary membranes, figure in parentheses = number of tests, read-out: D2 (KBind, KB); for D2 to D1 ratios: selectivity ratio from the D1 and D2 binding data of Tables I and II, n to 1 = D2 selective, 1 to n = D1 selective
T2 construct: homogenized and washed membrane preparations from bovine anterior pituitary; from tissue; host or cells: bovine anterior pituitary membranes
T2 sequence (P20288 whole entry): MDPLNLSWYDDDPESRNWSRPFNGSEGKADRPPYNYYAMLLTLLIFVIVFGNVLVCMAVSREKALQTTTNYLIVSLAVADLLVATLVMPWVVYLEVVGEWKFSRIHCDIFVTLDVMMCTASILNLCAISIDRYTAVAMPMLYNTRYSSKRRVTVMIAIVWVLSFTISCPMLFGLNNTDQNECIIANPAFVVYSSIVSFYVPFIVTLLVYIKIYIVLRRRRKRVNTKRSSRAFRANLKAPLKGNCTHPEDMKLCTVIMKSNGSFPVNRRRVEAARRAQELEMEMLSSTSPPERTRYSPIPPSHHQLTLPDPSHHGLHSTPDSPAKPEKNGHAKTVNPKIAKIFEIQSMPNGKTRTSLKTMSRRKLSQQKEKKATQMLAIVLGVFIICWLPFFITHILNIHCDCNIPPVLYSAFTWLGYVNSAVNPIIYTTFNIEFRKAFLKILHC
Protocol: A) D2 Activity - Competition for ^3H-Spiroperidol in Bovine Anterior Pituitary Tissue. Test Procedure
The assay was performed using homogenized and washed membrane preparations from bovine anterior pituitary. Incubation proceeded for 20 minutes at 37° in 50 mM Tris-HCI, pH 7.4, containing 10 mM magnesium sulfate, 2 mM ethylenediamine tetra-acetic acid and 0.1 % ascorbate. The membrane- bound radioactivity was trapped by rapid filtration over glass fiber (GF/C) filters. In each experiment, the amount of ^3H-spiroperidol bound was determined in the absence (total) and presence (non-specific) of 10^-6M (+)-butaclamol, the difference yielding specific ^3H-spiroperidol binding. The ability of each compound to compete with ^3H-spiroperidol (approximately .25 nM) was tested at concentrations of 10-^7 and 10-^5.

[3] = system: spontaneous hypertensive rat; assay: Natriuretic activity in the spontaneous hypertensive rat protocol; type: in vivo; settings: at a hypotensive dose (Compound G: 3.12 mg/kg i.p.)
[4] = system: a2; assay: Clonidine binding protocol (a2 activity)
[5] = system: rabbit ear artery; assay: Standard rabbit ear artery protocol for pre-junctional dopaminergic activity; settings: ED50 for Compound D
[6] = competition with 3H-fenoldopam (approximately 2.0 nM), rat caudate membranes, figure in parentheses = number of tests, read-out: D1 (KBind, KB)

Structure (SMILES)	Kb [1, 6] [nM]	Kb [2] [nM]	natriuretic activity [3]	a2 activity [4]	D2 to D1 ratios [2]	EC50 [5] [nM]	Kb [1] [nM]
CCCN(CCC)C1CCc2cc(Cl)c(O)cc2C1 (stereo not shown) [M, reference compound]	4710	1630					
CCCN(CCC)C1CCc2cc(O)c(O)c(Cl)c2C1 (stereo not shown) [C, 8-Chloro-6,7-dihydroxy-2-di-n-propyl aminotetralin]	620	240					
NC1CCc2cc(F)c(O)cc2C1 (stereo not shown) [L, reference compound]	370	660					
CCCN(CCc1ccc(O)cc1)C1CCc2cc(O)c(O)c(Cl)c2C1 (stereo not shown) [A, 8-Chloro-6,7-dihydroxy-2-[N-(n-propyl)-N-(4-hydroxyphenethyl)-amino] tetralin]	270	33					
NC1CCc2cc(O)c(O)cc2C1 (stereo not shown) [ADTN, 6,7-Dihydroxy-2-aminotetralin, reference compound]			inactive	demonstrated a2 activity	1 to 3		
NC1CCc2c(cc(O)c(O)c2F)C1 (stereo not shown) [Compound D, 5-Fluoro-6,7-dihydroxy-2-aminotetralin]	72	520		demonstrated a2 activity	1 to 7	2.14	
Oc1ccc(CCNC2CCc3cc(O)c(O)c(Cl)c3C2)cc1 (stereo not shown) [B, 8-Chloro-6,7-dihydroxy-2-(4-hydroxyphenethylamino)tetralin]	1450	405					
NC1CCc2c(cc(O)c(O)c2Cl)C1 (stereo not shown) [Compound F, 5-Chloro-6,7-dihydroxy-2-aminotetralin]	640	470		demonstrated a2 activity		50	
NC1CCc2c(ccc(O)c2Cl)C1 (stereo not shown) [O, reference compound]	> 10000	11600					
NC1CCc2cc(O)c(O)c(Cl)c2C1 (stereo not shown) [Compound G, 8-Chloro-6,7-dihydroxy-2-aminotetralin]		3160	potent natriuretic activity	demonstrated a2 activity	1 to 80	513	43
NC1CCc2cc(O)c(Cl)cc2C1 (stereo not shown) [N, reference compound]	1970	4470					
NC1CCc2cc(O)c(O)c(F)c2C1 (stereo not shown) [Compound E, 8-Fluoro-6,7-dihydroxy-2-aminotetralin]	62	1270		demonstrated a2 activity	1 to 27	5	
